B1: Aspergillus oryzae tannase: Aspergillus oryzae tannase (Novozymes A/S, Bagsværd, Denmark) (protein, listed as Aspergillus oryzae)
chain: MPSLRRLLPFLAAGSAALASQDTFQGKCTGFADKINLPNVRVNFVNYVPGGTNLSLPDNPTSCGTTSQVVSEDVCRIAMAVATSNSSEITLEAWLPQNYTGRFLSTGNGGLSGCIQYYDLAYTSGLGFATVGANSGHNGTSGEPFYHHPEVLEDFVHRSVHTGVVVGKQLTKLFYEEGFKKSYYLGCSTGGRQGFKSVQKYPNDFDGVVAGAPAFNMINLMSWSAHFYSITGPVGSDTYLSPDLWNITHKEILRQCDGIDGAEDGIIEDPSLCSPVLEAIICKPGQNTTECLTGKQAHTVREIFSPLYGVNGTLLYPRMQPGSEVMASSIMYNGQPFQYSADWYRYVVYENPNWDATKFSVRDAAVALKQNPFNLQTWDADISSFRKAGGKVLTYHGLMDQLISSENSKLYYARVAETMNVPPEELDEFYRFFQISGMAHCSGGDGAYGIGNQLVTYNDANPENNVLMAMVQWVEKGIAPETIRGAKFTNGTGSAVEYTRKHCRYPRRNVYKGPGNYTDENAWQCV

What was measured:
[1] = system: T1, Cellulolytic Enzyme Composition #1; assay: PCS hydrolysis by Cellulolytic Enzyme Composition #1 with added compounds; assay type: biochemical, Trichoderma reesei; details: for effect on hydrolysis of PCS by Cellulolytic Enzyme Composition #1: 1 mM each compound, 43.4 g PCS and 0.25 g enzyme per liter, pH 5.0, 50° C.; for loss in initial rate of PCS hydrolysis / loss in the extent of PCS hydrolysis at day 4: 50 g PCS, 0.25 g enzyme per liter, methyl gallate and ellagic acid 10 mM, tannic acid 1 mM
T1 construct: other: PASC hydrolysis; mean ± SD; 0.01 g enzyme; Dixon plot linear regression intercept (1/Rate); other: AVICEL; rate from hydrolysis difference (%) at 0 and 6 hours; rate from hydrolysis difference; fused on or other part: The A. oryzae beta-glucosidase is the mature chain secreted behind the Humicola insolens endoglucanase V signal peptide, which is cleaved off
Protocol: (§1) Corn stover was pretreated at the U.S. Department of Energy National Renewable Energy Laboratory (NREL), […], Colo., USA, using dilute sulfuric acid. The following conditions were used for the pretreatment: 1.4 wt % sulfuric acid at 195° C. for 4.5 minutes. According to limit digestion with excess cellulase enzymes, the water-insoluble solids in the pretreated corn stover (PCS) contained 59.5% cellulose. Prior to use, the PCS was washed with a large volume of deionized water until soluble acid and sugars were removed. The dry weight of the water-washed PCS was 19.16%.
(§2) The effect of a mixture of tannic acid, ellagic acid, epicatechin, and six lignin constituent compounds (4-hydroxyl-2-methylbenzoic acid, vanillin, coniferyl alcohol, coniferyl aldehyde, ferulic acid, and syringaldehyde) was determined on the hydrolysis of PCS by Cellulolytic Enzyme Composition #1 or Cellulolytic Enzyme Composition #2. […] Cellulolytic Enzyme Composition #1 or Cellulolytic Enzyme Composition #2 was added at 0.25 g per liter. Reactions without the addition of the compounds served as controls. The capped tubes were incubated at 50° C. in an INNOVA® 4080 incubator shaker (New Brunswick Scientific Co., Inc., Edison, N.J., USA) at 150 rpm.
(§3) Aliquots of the suspensions, sampled over time, were filtered by centrifugation using a 0.45 μm MULTISCREEN® HV membrane (Millipore, Billerica, Mass., USA) at 2000 rpm for 15 minutes using a SORVALL® RT7 centrifuge (Thermo Fisher Scientific, Waltham, Mass., USA). When not used immediately, the filtered aliquots were frozen at −20° C. Sugar concentrations of the samples diluted in 0.005 M H2SO4 were measured after elution by 0.005 M H2SO4 at a flow rate of 0.4 ml/minute from a 4.6×250 mm AMINEX® HPX-87H column (Bio-Rad, Hercules, Calif., USA) at 65° C. with quantitation by integration of glucose and cellobiose using refractive index detection (CHEMSTATION®, AGILENT® 1100 HPLC, Agilent Technologies, Santa Clara, Calif., USA) calibrated with standards of glucose and cellobiose. The resultant equivalents were used to calculate the percentage of cellulose conversion for each reaction.
(§4) The degree of cellulose conversion to glucose plus cellobiose sugars (conversion, %) was calculated using the following equation:
(§5) Conversion(%)=(glucose+cellobiose×1.053)(mg/ml)×100×162/cellulose(mg/ml)×180)=(glucose+cellobiose×1.053)(mg/ml)×100/(cellulose(mg/ml)×1.111)
(§6) In this equation the factor 1.111 reflects the weight gain in converting cellulose to glucose, and the factor 1.053 reflects the weight gain in converting cellobiose to glucose. Cellulose in PCS was determined by a limit digest of PCS to release glucose and cellobiose.
(§7) Example 30 was repeated except that each compound was tested separately. […] Reactions without the addition of each compound served as controls.
(§8) The effect of OPC or flavonol on the hydrolysis of PCS by Cellulolytic Enzyme Composition #1 or Cellulolytic Enzyme Composition #2 was determined according to the procedure described in Example 30. OPC and flavonol were present at a concentration of 1 mM. Reactions without the addition of the compounds served as controls.
Methyl gallate and ellagic acid were compared at 10 mM to 1 mM tannic acid in the hydrolysis of PCS by Cellulolytic Enzyme Composition #1.

[2] = system: T2, Cellulolytic Enzyme Composition #2; assay: PCS hydrolysis by Cellulolytic Enzyme Composition #2 with added compounds; assay type: biochemical, Trichoderma reesei; details: 1 mM each compound; 43.4 g PCS and 0.25 g enzyme per liter, pH 5.0, 50° C.
T2 construct: Dixon plot linear regression intercept (1/Rate); other: PCS; rate from hydrolysis difference (%) at 0 and 5 hours; rate from hydrolysis difference (%); Ki (x-intercept of Dixon plot); other: PCS hydrolysis, Cellulolytic Enzyme Composition #2; OPC flavonol-equivalent; Ki expressed as galloyl constituents; oth; fused on or other part: In one component the Humicola insolens endoglucanase V (CEL45A) core is fused in front of the A. oryzae beta-glucosidase
Protocol: as §1, §2, §3, §4, §5, §6, §7, §8
(§9) The effective inhibitory concentration range for tannic acid and OPC was also determined by the “mini-scale” hydrolysis described in Example 30 with Cellulolytic Enzyme Composition #2. The concentration of tannic acid ranged from 0.1 mM to 1 mM, while the concentration of OPC ranged from 0.1 mM to 10 mM. Reactions without the addition of the tannic compounds served as controls.
(§10) However, prior to the addition of Cellulolytic Enzyme Composition #2, the mixture of PCS or OPC and tannic acid was treated with Aspergillus oryzae tannase (Novozymes A/S, Bagsværd, Denmark) at 10% of the final protein level for 30 minutes. Reactions without addition of the tannic acid, OPC, or tannase served as controls.

[3] = Tannase reduction of tannic acid inhibition of PCS hydrolysis by Cellulolytic Enzyme Composition #1; assay type: biochemical; details: 1 mM tannic acid
Protocol: To reduce the inhibition, tannase was added at 12.5, 25, and 50 mg per liter (or 0.21, 0.42, and 0.85 μM).

[4] = system: Cellulolytic Enzyme Composition #2; assay: PCS hydrolysis by Cellulolytic Enzyme Composition #2 with added compounds; assay type: biochemical, Trichoderma reesei; details: tannase alone, in the absence of tannic acid or OPC
Protocol: as §1, §2, §3, §4, §5, §6, §7, §8, §9, §10

[5] = Tannase reduction of tannic acid inhibition of PCS hydrolysis by Cellulolytic Enzyme Composition #2; assay type: biochemical; details: 1 mM tannic acid; 43 g PCS per liter; tannase at 10% of final protein level for 30 minutes
Protocol: (§11) Tannase was evaluated for its ability to reduce the inhibitory effect of tannic acid on OPC on PCS hydrolysis by Cellulolytic Enzyme Composition #2.
as §10

[6] = Tannase reduction of OPC inhibition of PCS hydrolysis by Cellulolytic Enzyme Composition #2; assay type: biochemical; details: 10 mM OPC; 43 g PCS per liter; tannase at 10% of final protein level for 30 minutes
Protocol: as §11, §10

Molecule	effect on hydrolysis of PCS by Cellulolytic Enzyme Composition #1 [1]	loss in initial rate of PCS hydrolysis [1]	loss in the extent of PCS hydrolysis at day 4 [1]	further results
O=c1oc2c(O)c(O)cc3c(=O)oc4c(O)c(O)cc1c4c23 [ellagic acid]	but not its constituent ellagic acid (FIG. 17C), significantly inhibited	~30%	~40%	
O=c1c(O)c(-c2ccccc2)oc2ccccc12 [flavonol]	not its constituent flavonol, was inhibitory			effect on hydrolysis of PCS by Cellulolytic Enzyme Composition #2 [2]: not inhibitory
COC(=O)c1cc(O)c(O)c(O)c1 [methyl gallate]		~10%	~10%	
B1				reduction of tannic acid inhibition ([3]; tannase at approximately 12 mg per liter): approximately 50%; reduction of tannic acid inhibition ([3]; tannase at approximately 25 mg per liter): ~100%; increase in hydrolysis extent of PCS by Cellulolytic Enzyme Composition #2 [4]: approximately 2%; effect of tannase pretreatment on the inhibitory effect of tannic acid on Cellulolytic Enzyme Composition #2 [5]: significantly reduced; effect of tannase pretreatment on the inhibitory effect of OPC on Cellulolytic Enzyme Composition #2 [6]: significantly reduced

Reference: patent US20090123979A1, “Methods of reducing the inhibitory effect of a tannin on the enzymatic hydrolysis of cellulosic material” (Novozymes, Inc., priority 2007, published 2009)
